Biological target: T1, human mAChR M4 (Homo sapiens, UniProt P08173)
T1 construct: expressed in transfected cells
T1 sequence (P08173 1-479): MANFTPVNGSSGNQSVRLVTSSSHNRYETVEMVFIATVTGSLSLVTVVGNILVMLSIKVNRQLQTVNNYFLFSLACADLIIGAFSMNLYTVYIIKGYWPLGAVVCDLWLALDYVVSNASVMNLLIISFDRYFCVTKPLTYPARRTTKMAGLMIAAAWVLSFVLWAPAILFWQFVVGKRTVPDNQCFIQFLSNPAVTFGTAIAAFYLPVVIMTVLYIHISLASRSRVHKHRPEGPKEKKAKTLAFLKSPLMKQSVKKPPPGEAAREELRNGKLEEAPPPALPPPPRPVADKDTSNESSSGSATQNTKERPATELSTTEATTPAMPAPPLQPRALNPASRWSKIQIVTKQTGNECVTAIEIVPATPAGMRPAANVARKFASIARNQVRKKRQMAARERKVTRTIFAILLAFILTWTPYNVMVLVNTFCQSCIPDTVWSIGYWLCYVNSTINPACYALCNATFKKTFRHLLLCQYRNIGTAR
Assay: mAChR M4 cell-based functional assay (calcium mobilization, CHO-K1 hM4-Gqi5 cells)
Conditions: for Emax at 30 µM: CHO-K1, % ACh maximum at 30 μM, human M4; for EC50: positive allosteric modulator activity, increase in the EC20 acetylcholine response, CHO-K1 hM4-Gqi5 cells, read-out: Human M4 EC50; for Emax: CHO-K1
Method in brief: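 Fluorescent calcium read-out (Fluo-4 AM, FDSS, 1 Hz) in hM4-Gqi5 CHO-K1 cells, 11-point 1:3 compound series. Agonism scored on compound addition, PAM activity as increase of the 144 s EC20 acetylcholine response, antagonism as decrease of the 230 s EC80 response; four-parameter logistic fits give EC50 and Emax.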

SMILES | Emax at 30 µM [%] | EC50 [µM] | Emax [%]
Cc1cc(C(=O)N2CCC2)nnc1N1CCc2ncc(N3CCCn4nccc43)cc2C1 [Example 545, azetidin-1-yl(6-(3-(6,7-dihydropyrazolo[1,5-a]pyrimidin-4(5H)-yl)-7,8-dihydro-1,6-naphthyridin-6(5H)-yl)-5-methylpyridazin-3-yl)methanone] | 125 | 0.046 | 
Cc1c(C#N)nnc(N2CCc3ncc(Oc4cc(F)ccc4F)cc3C2)c1C [Example 353, 6-(3-(2,5-difluorophenoxy)-7,8-dihydro-1,6-naphthyridin-6(5H)-yl)-4,5-dimethylpyridazine-3-carbonitrile] | 73 | 0.126 | 
Cc1c(C(=O)NCc2ccncc2)nnc(N2CCc3ncccc3C2)c1C [compound 135, 6-(7,8-dihydro-5H-1,6-naphthyridin-6-yl)-4,5-dimethyl-N-(4-pyridylmethyl)pyridazine-3-carboxamide] | 84 | 1.8 | 
Cc1cc(C(=O)N2CCCC2(C)C)nnc1N1CCc2ncc(N3CCCn4nccc43)cc2C1 [Example 529, (6-(3-(6,7-dihydropyrazolo[1,5-a]pyrimidin-4(5H)-yl)-7,8-dihydro-1,6-naphthyridin-6(5/I)-yl)-5-methylpyridazin-3-yl)(2,2-dimethylpyrrolidin-1-yl)methanone] | 68 | 0.57 | 
Cc1cc(C#N)cnc1N1CCc2ncc(Nc3cc(F)ccc3F)cc2C1 [compound 110, 6-[3-(2,5-difluoroanilino)-7,8-dihydro-5H-1,6-naphthyridin-6-yl]-5-methyl-pyridine-3-carbonitrile] | 95 | 0.167 | 
CCOc1nc(N2CCc3ncc(C(F)(F)F)cc3C2)c(C)cc1C#N [Example 373, 2-ethoxy-5-methyl-6-(3-(trifluoromethyl)-7,8-dihydro-1,6-naphthyridin-6(5H)-yl)nicotinonitrile] | 64 | 1.74 | 
Cc1cc(C(=O)NCc2ccc(S(C)(=O)=O)cc2)cnc1N1CCc2ncccc2C1 [compound 143, 6-(7,8-dihydro-5H-1,6-naphthyridin-6-yl)-5-methyl-N-[(4-methylsulfonylphenyl)methyl] pyridine-3-carboxamide] | 53 | 5.83 | 
Cc1cc(C#N)cnc1N1CCc2ncc(-c3ccns3)cc2C1 [compound 291, 6-(3-(isothiazol-5-yl)-7,8-dihydro-1,6-naphthyridin-6(5H)-yl)-5-methylnicotinonitrile] | 96 | 0.088 | 
Cc1cc(C#N)nnc1N1CCc2ncc(C(F)F)cc2C1 [Example 309, 6-(3-(difluoromethyl)-7,8-dihydro-1,6-naphthyridin-6(5H)-yl)-5-methylpyridazine-3-carbonitrile] |  | 0.77 | 96
Cc1nn(C)cc1-c1cnc2c(c1)CN(c1nnc(C#N)c(C)c1C)CC2 [compound 295, 6-(3-(1,3-dimethyl-1H-pyrazol-4-yl)-7,8-dihydro-1,6-naphthyridin-6(5H)-yl)-4,5-dimethylpyridazine-3-carbonitrile] | 95 | 0.485 | 
Cc1c(Cl)nc(C2CC2)nc1N1CCc2ncccc2C1 [compound 84, 6-(6-chloro-2-cyclopropyl-5-methyl-pyrimidin-4-yl)-7,8-dihydro-5H-1,6-naphthyridine] |  | 2.24 | 71
Cc1c(C#N)nnc(N2CCc3ncc(-c4ccc(F)nc4)cc3C2)c1C [Example 334, 6-(3-(6-fluoropyridin-3-yl)-7,8-dihydro-1,6-naphthyridin-6(5H)-yl)-4,5-dimethylpyridazine-3-carbonitrile] | 60 | 0.582 | 
Cc1nn(C)cc1-c1cnc2c(c1)CN(c1nc(CO)nc(C)c1C)CC2 [compound 226, (4-(3-(1,3-dimethyl-1H-pyrazol-4-yl)-7,8-dihydro-1,6-naphthyridin-6(5H)-yl)-5,6-dimethylpyrimidin-2-yl)methanol] | 89 | 0.346 | 
Cc1cc(C#N)nnc1N1CCc2ncc(N3CCOC(C)(C)C3)cc2C1 [Example 398, 6-(3-(2,2-dimethylmorpholino)-7,8-dihydro-1,6-naphthyridin-6(5H)-yl)-5-methylpyridazine-3-carbonitrile] | 74 | 0.102 | 
Cc1cc(C(=O)N2CCc3ccncc3C2)nnc1N1CCc2ncc(C(F)(F)F)cc2C1 [Example 499, (3,4-dihydro-2,7-naphthyridin-2(1H)-yl)(5-methyl-6-(3-(trifluoromethyl)-7,8-dihydro-1,6-naphthyridin-6(5H)-yl)pyridazin-3-yl)methanone] | 88 | 2.67 | 

Now from value to compound, other results behind:

Emax at 30 µM [%] | EC50 [µM] | SMILES | Emax [%]
90 | 0.141 | Cc1cc(C#N)cnc1N1CCc2ncc(Oc3cccc(F)c3)cc2C1 [compound 181, 6-[3-(3-fluorophenoxy)-7,8-dihydro-5H-1,6-naphthyridin-6-yl]-5-methyl-pyridine-3-carbonitrile] | 
129 | 0.016 | Cc1cc(C(=O)N2CC(Cl)C2)nnc1N1CCc2ncc(N3CCCn4nccc43)cc2C1 [Example 527, (3-chloroazetidin-1-yl)(6-(3-(6,7-dihydropyrazolo[1,5-a]pyrimidin-4(5H)-yl)-7,8-dihydro-1,6-naphthyridin-6(5H)-yl)-5-methylpyridazin-3-yl)methanone] | 
54 | 1.88 | Cc1cc(F)c(F)cc1-c1cnc2c(c1)CN(c1nnc(C#N)cc1C)CC2 [Example 596, 6-(3-(4,5-difluoro-2-methylphenyl)-7,8-dihydro-1,6-naphthyridin-6(5H)-yl)-5-methylpyridazine-3-carbonitrile] | 
95 | 0.302 | Cc1cc(C#N)cnc1N1CCc2ncc(-c3cnn(C4CC4)c3)cc2C1 [compound 96, 6-[3-(1-cyclopropylpyrazol-4-yl)-7,8-dihydro-5H-1,6-naphthyridin-6-yl]-5-methyl-pyridine-3-carbonitrile] | 
70 | 1.17 | COc1nc(C)nc(N2CCc3ncc(-c4cn(C)nc4C)cc3C2)c1C [compound 196, 3-(1,3-dimethylpyrazol-4-yl)-6-(6-methoxy-2,5-dimethyl-pyrimidin-4-yl)-7,8-dihydro-5H-1,6-naphthyridine] | 
103 | 0.04 | Cc1cc2n(n1)CCCN2c1cnc2c(c1)CN(c1ncc(C#N)cc1C)CC2 [Example 385, 5-methyl-6-(3-(2-methyl-6,7-dihydropyrazolo[1,5-a]pyrimidin-4(5H)-yl)-7,8-dihydro-1,6-naphthyridin-6(5H)-yl)nicotinonitrile] | 
71 | 1.83 | Cc1cc(C(=O)NCC(C)C)cnc1N1CCc2ncc(-c3cn(C)nc3C)cc2C1 [Example 460, 6-(3-(1,3-dimethyl-1H-pyrazol-4-yl)-7,8-dihydro-1,6-naphthyridin-6(5H)-yl)-N-isobutyl-5-methylnicotinamide] | 
50 | ≥ 10 | Cc1cc(C(=O)NCc2ncc(C(F)(F)F)cn2)cnc1N1CCc2ncccc2C1 [compound 145, 6-(7,8-dihydro-5H-1,6-naphthyridin-6-yl)-5-methyl-N-[[5-(trifluoromethyl)pyrimidin-2-yl]methyl]pyridine-3-carboxamide] | 
87 | 0.265 | Cc1cc(C(=O)NCc2nccs2)cnc1N1CCc2ncc(-c3ccn(C)n3)cc2C1 [compound 171, 5-methyl-6-[3-(1-methylpyrazol-3-yl)-7,8-dihydro-5H-1,6-naphthyridin-6-yl]-N-(thiazol-2-ylmethyl)pyridine-3-carboxamide] | 
101 | 0.422 | Cc1c(C(=O)NCc2csc3ccccc23)nnc(N2CCc3ncc(C(F)(F)F)cc3C2)c1C [Example 463, N-(benzo[b]thiophen-3-ylmethyl)-4,5-dimethyl-6-(3-(trifluoromethyl)-7,8-dihydro-1,6-naphthyridin-6(5H)-yl)pyridazine-3-carboxamide] | 
82 | 0.815 | Cc1nc(Cl)c(C)c(N2CCc3ncc(Nc4ccc(F)cc4F)cc3C2)n1 [compound 87, 6-(6-chloro-2,5-dimethyl-pyrimidin-4-yl)-N-(2,4-difluorophenyl)-7,8-dihydro-5H-1,6-naphthyridin-3-amine] | 
105 | 0.261 | Cc1nc(NCC(C)(C)O)nc(N2CCc3ncc(Nc4ccnn4C)cc3C2)c1C [compound 280, 1-((4,5-dimethyl-6-(3-((1-methyl-1H-pyrazol-5-yl)amino)-7,8-dihydro-1,6-naphthyridin-6(5/I)-yl)pyrimidin-2-yl)amino)-2-methylpropan-2-ol] | 
78 | 0.233 | Cc1cnc(F)cc1-c1cnc2c(c1)CN(c1nnc(C#N)c(C)c1C)CC2 [compound 72, 6-[3-(2-fluoro-5-methyl-4-pyridyl)-7,8-dihydro-5H-1,6-naphthyridin-6-yl]-4,5-dimethyl-pyridazine-3-carbonitrile] | 
78 | 0.468 | Cc1cc(C(=O)NCc2ccncc2)cnc1N1CCc2ncc(-c3cn(C)nc3C)cc2C1 [Example 482, 6-(3-(1,3-dimethyl-1H-pyrazol-4-yl)-7,8-dihydro-1,6-naphthyridin-6(5H)-yl)-5-methyl-N-(pyridin-4-ylmethyl)nicotinamide] | 

Source: patent US20250230155A1 (Vanderbilt University, priority 2021, published 2025)
